Counter-ions that a name gives are not always drawn. Like-named read-outs stand apart in the source and are kept apart here.
Molecular target: T1, Arginase (Homo sapiens, UniProt P05089)
T1 construct: Arginase protein was recombinantly expressed in Escherichia coli
T1 sequence (P05089 1-322): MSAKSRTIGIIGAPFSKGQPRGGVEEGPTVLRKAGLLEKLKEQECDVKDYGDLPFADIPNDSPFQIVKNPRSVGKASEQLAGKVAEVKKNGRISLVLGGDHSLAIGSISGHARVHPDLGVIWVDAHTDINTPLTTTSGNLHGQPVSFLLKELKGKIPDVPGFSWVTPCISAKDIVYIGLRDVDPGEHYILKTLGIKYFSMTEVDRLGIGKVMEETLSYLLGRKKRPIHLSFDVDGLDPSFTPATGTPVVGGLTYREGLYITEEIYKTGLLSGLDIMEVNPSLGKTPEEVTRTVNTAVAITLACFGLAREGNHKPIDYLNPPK
Assay: Arginase Thioornithine Generating Assay (TOGA)
Type: biochemical
Details: for IC50: recombinant arginase 1.88 nM, thioarginine substrate; for inhibition at 16 µM: Top Dose 16000 nM
Method: Arginase Thioornithine Generating Assay (TOGA)
Compounds were serially diluted in ten 3-fold steps in DMSO starting from 10 mM DMSO stocks. Compound dilutions or DMSO alone were then dispensed from the dilution plate into a Greiner black 384-well assay plate (catalog #781086) using an Echo 555 acoustic liquid handler (Labcyte).
Arginase protein was recombinantly expressed in Escherichia coli. Purified protein was then diluted in assay buffer (50 mM Tris pH 7.5, 50 mM NaCl, 1 mM manganese chloride, 0.05% bovine serum albumin to obtain a final Arginase concentration of 1.88 nM. Arginase solution (20 μL) or buffer alone (20 μL) were dispensed to wells of the assay plate using a BioRAPTR liquid dispenser (Beckman Coulter). Assay plates containing compound and arginase enzyme were incubated at room temperature for 30 minutes. Afterwards, 5 μL of 2.5 mM thioarginine (Cayman Chemicals) in assay buffer were added to each well of the assay plate using a BioRAPTR liquid dispenser. Plates were incubated at room temperature for 60 minutes and reactions were quenched by addition of 15 μL of 200 uM 7-Diethylamine-3-(4-maleimidophenyl)-4-methylcoumarin (Sigma Chemical) in 70% ethanol. Plates were briefly shaken to mix and the fluorescence was measured in an Spectramax plate reader (Molecular Devices) with a 410 nm excitation wavelength and an 490 nm emission wavelength.
Potencies were calculated by […] to the four parameter logistic IC50 equation.

[1] = read-out: Percent Inhibition at Top Dose, Top Dose 10000 nM
[2] = Top Dose 10000 nM, read-out: Percent Inhibition at Top Dose
[3] = read-out: Percent Inhibition at Top Dose

Compound | inhibition at 10 µM [2] | IC50 | further results
C[C@H](N)C(=O)N1CCCC12CCC(N)(C(=O)O)C(CCCB(O)O)C2 (stereo partly drawn) [Example 26, 8-amino-1-((S)-2-aminopropanoyl)-7-(3-boronopropyl)-1-azaspiro[4.5]decane-8-carboxylic acid hydrochloride] |  |  | inhibition at 10 µM [1]: 45.2%
NC1(C(=O)O)C(CCCB(O)O)C[C@H]2NCC[C@H]21 (mixture of isomers) [Example 20f, (3aR,6aR)-4-amino-5-(3-boronopropyl)octahydrocyclopenta[b]pyrrole-4-carboxylic acid] |  |  | inhibition at 10 µM [1]: 99.2%
NCC(=O)N1C[C@@H]2C[C@@](N)(C(=O)O)[C@@H](CCCB(O)O)[C@@H]2C1 [Example 5, (3aR,4S,5S,6aR)-5-amino-4-(3-boronopropyl)-2-glycyloctahydrocyclopenta[c]pyrrole-5-carboxylic acid] | 95.1% | 160 nM | 
C[C@@H]1NC[C@@H]2CC(N)(C(=O)O)[C@@H](CCCB(O)O)C21 (stereo partly drawn) [Example 31b, (3aR,6S,6aR)-5-amino-6-(3-boronopropyl)-1-methyloctahydrocyclopenta[c]pyrrole-5-carboxylic acid, HFBA Salt] | 70% |  | 
CN1C[C@@H]2C[C@@](N)(C(=O)O)[C@@H](CCCB(O)O)[C@@H]2C1 [Example 2, (3aR,4S,5S,6aR)-5-amino-4-(3-boronopropyl)-2-methyloctahydrocyclopenta[c]pyrrole-5-carboxylic acid] |  | 82.7 nM | inhibition at 16 µM [3]: 82.6%
CN[C@@H]1C[C@@H]2C[C@@](N)(C(=O)O)[C@@H](CCCB(O)O)[C@@H]2C1 [Example 51a, (1S,2S,3aR,5R,6aR)-2-amino-1-(3-boronopropyl)-5-(methylamino)octahydropentalene-2-carboxylic acid] | 99.6% | 33 nM | 
(1S,2S,3aR,5S,6aR)-2-amino-1-(3-boronopropyl)-5-(methylamino)octahydropentalene-2-carboxylate [Example 51b] |  | 20.5 nM | Percent Inhibition at Top Dose (Top Dose 10000 nM): 98.67%
N[C@@]1(C(=O)O)C[C@H]2CNC[C@H]2[C@@H]1CCCB(O)O [Example 1e, (3aR,4S,5S,6aR)-5-amino-4-(3-boronopropyl)octahydrocyclopenta[c]pyrrole-5-carboxylic acid] | 98.9% |  | 
CC(C)[C@H](N)C(=O)N[C@H]1C[C@@H]2C[C@@](N)(C(=O)O)[C@@H](CCCB(O)O)[C@@H]2C1 [Example 47, (1S,2S,3aR,5S,6aR)-2-amino-5-((S)-2-amino-3-methylbutanamido)-1-(3-boronopropyl)octahydropentalene-2-carboxylic acid] | 94.2% | 522 nM | 
NC1(C(=O)O)C(CCCB(O)O)CC2NCCCC21 (stereo not shown) [Example 40, 5-amino-6-(3-boronopropyl)octahydro-1H-cyclopenta[b]pyridine-5-carboxylic acid] | 91.4% |  | 
C[C@H](N)C(=O)N1C[C@@H]2C[C@@](N)(C(=O)O)[C@@H](CCCB(O)O)[C@@H]2C1 [Example 4, (3aR,4S,5S,6aR)-2-(L-alanyl)-5-amino-4-(3-boronopropyl)octahydrocyclopenta[c]pyrrole-5-carboxylic acid] | 97.4% | 108 nM | 
NCC(=O)N1C[C@@H]2CC(N)(C(=O)O)C(CCCB(O)O)[C@@H]2C1 (stereo in doubt) [Example 16, 5-amino-2-(2-aminoacetyl)-4-(3-boronopropyl)octahydrocyclopenta[c]pyrrole-5-carboxylic acid] | 97.9% |  | 
N[C@@]1(C(=O)O)C[C@H]2CNC(=O)[C@H]2[C@@H]1CCCB(O)O (single isomer, unassigned) [Example 23b] | 38.8% |  | 
N[C@@]1(C(=O)O)C[C@H]2C[C@@H](O)C[C@H]2[C@@H]1CCCB(O)O [Example 44a, (1S,2S,3aS,5R,6aR)-2-amino-1-(3-boronopropyl)-5-hydroxyoctahydropentalene-2-carboxylic acid] | 97.1% | 259 nM | 
N=C(N)N1C[C@@H]2C[C@@](N)(C(=O)O)[C@@H](CCCB(O)O)[C@@H]2C1 (single isomer, unassigned) [Example 11a] | 67.2% |  | 
(1S,2S,3aR,4S,5R,6aS)-2-amino-1-(3-boronopropyl)-4-fluoro-5-hydroxyoctahydropentalene-2-carboxylate [Example 54b] |  | 42.5 nM | Percent Inhibition at Top Dose (Top Dose 10000 nM): 100.1%
NC1(C(=O)O)c2cnccc2CC1CCCB(O)O (stereo not shown) [Example 30, 7-amino-6-(3-boronopropyl)-6,7-dihydro-5H-cyclopenta[c]pyridine-7-carboxylic acid] | 87.3% |  | 
CN1CC[C@@H]2[C@H]1C[C@@H](CCCB(O)O)C2(N)C(=O)O (relative stereo) [Example 32, rel-(3aR,5R,6aR)-4-amino-5-(3-boronopropyl)-1-methyloctahydrocyclopenta[b]pyrrole-4-carboxylic acid] | 97.2% |  | 
CN(C)[C@@H]1C[C@@H]2C[C@@](N)(C(=O)O)[C@@H](CCCB(O)O)[C@@H]2C1 [Example 50, (1S,2S,3aR,5R,6aR)-2-amino-1-(3-boronopropyl)-5-(dimethylamino)octahydropentalene-2-carboxylic acid] | 97.8% |  | 
(1S,2S,3aR,4S,5R,6aS)-2-amino-1-(3-boronopropyl)-4-fluoro-5-(methylamino)octahydropentalene-2-carboxylate [Example 55a] |  | 23.2 nM | Percent Inhibition at Top Dose (Top Dose 10000 nM): 103.1%
N[C@]1(C(=O)O)[C@H](CCCB(O)O)C[C@H]2NCC[C@H]21 [Example 20b, (3aR,4R,5R,6aR)-4-amino-5-(3-boronopropyl)octahydrocyclopenta[b]pyrrole-4-carboxylic acid] |  |  | inhibition at 10 µM [1]: 101%
N[C@@]1(C(=O)O)C[C@H]2CN(Cc3ccc(F)cc3)C[C@H]2[C@@H]1CCCB(O)O [Example 3, (3aR,4S,5S,6aR)-5-amino-4-(3-boronopropyl)-2-(4-fluorobenzyl)octahydrocyclopenta[c]pyrrole-5-carboxylic acid] | 99.8% |  | 
NC1(C(=O)O)CC2(CCNC2)OC1CCCB(O)O (stereo not shown) [Example 41, 3-amino-2-(3-boronopropyl)-1-oxa-7-azaspiro[4.4]nonane-3-carboxylic acid] | 97.7% |  | 
CN(C)CC(=O)N1C[C@@H]2CC(N)(C(=O)O)C(CCCB(O)O)[C@@H]2C1 (stereo in doubt) [Example 19, 5-amino-4-(3-boronopropyl)-2-(2-(dimethylamino)acetyl)octahydrocyclopenta[c]pyrrole-5-carboxylic acid] |  |  | inhibition at 16 µM [3]: 82.7%
NC1(C(=O)O)CC2CCCC2C1CCCB(O)O (stereo not shown) [Example 34a, 2-amino-1-(3-boronopropyl)octahydropentalene-2-carboxylic acid] | 22.2% |  | 
CCN1C[C@@H]2C[C@@](N)(C(=O)O)[C@@H](CCCB(O)O)[C@@H]2C1 [Example 12, (3aR,4S,5S,6aR)-5-amino-4-(3-boronopropyl)-2-ethyloctahydrocyclopenta[c]pyrrole-5-carboxylic acid] | 85.3% |  | 
N[C@@]1(C(=O)O)C[C@H]2CNC[C@H]2[C@@H]1CCCB(O)O [Example 1a] |  |  | inhibition at 100 µM (Top Dose 100000 nM, read-out: Percent Inhibition at Top Dose): 104%
NC1(C(=O)O)CC2(CNC2)CC1CCCB(O)O (single isomer, unassigned) [Example 35c, 6-amino-7-(3-boronopropyl)-2-azaspiro[3.4]octane-6-carboxylic acid] | 82.3% |  | 
